Structures can show the parent of a compound that is named as a salt. Where two headings read alike, the source gives them in different places.
Experiment: thermodynamic solubility (saturation solubility) in various media, quantified by HPLC
Type: physicochemical
Details: for solubility thermodynamic at 24 h: thermodynamic from solid, read-out: thermodynamic solubility, assay expressed as base
Protocol: The thermodynamic solubility of Tapentadol hydrochloride and of Tapentadol dihydrogenphosphate (mixed form, batch with fine particles) was determined as saturation solubility in various media at various pH values. The solutions were stirred for 24 hours at 25 °C and the pH values of the solutions at the start and at the end of the experiments were measured. The dissolved amount of Tapentadol was quantified by HPLC (free base of Tapentadol).

CC[C@@H](c1cccc(O)c1)[C@@H](C)CN(C)C [Tapentadol hydrochloride, (-)-(1R,2R)-3-(3-dimethylamino-1-ethyl-2-methyl-propyl)-phenol]
thermodynamic solubility, assay expressed as base (0.1 M HCl, 24 hours at 25 °C): 31.2 g/100 mL | thermodynamic solubility, assay expressed as base (0.15N NaOH, 24 hours at 25 °C): 6.6 g/100 mL | solubility thermodynamic at 24 h (acetate buffer pH 4.5, aqueous buffer, acetate pH 4.5, 24 hours at 25 °C): 327 mg/mL | solubility thermodynamic at 24 h (citrate buffer pH 6.8, aqueous buffer, citrate pH 6.8, 24 hours at 25 °C): 318 mg/mL | solubility thermodynamic at 24 h (citrate buffer pH 7.4, aqueous buffer, citrate pH 7.4, 24 hours at 25 °C): 319 mg/mL | solubility thermodynamic at 24 h (fassgf or other biorelevant, SIF sp pH 6.8, 24 hours at 25 °C): 324 mg/mL | solubility thermodynamic at 24 h (water, 24 hours at 25 °C): 330 mg/mL

Reference: patent EP3875077B1, “DOSAGE FORM PROVIDING PROLONGED RELEASE OF […] SALT” (Grünenthal GmbH, priority 2020, dated 2021)
